This note sets out measurements from US20230159538A1, “PYRROLIDINE-PYRAZOLES AS PYRUVATE KINASE ACTIVATORS” (Global Blood Therapeutics, Inc., priority 2020, published 2023).

For orientation: AC50 means the concentration at which the activity in the assay is half-maximal. A high value points to weaker potency.

The target in this test is T1, Human pyruvate kinase R (PKR) (Homo sapiens, UniProt P30613).
T1 construct: Human pyruvate kinase R (PKR), residues 14-574; 6x-His (N, cleaved yes); 8x-Arg (N, cleaved yes); SUMO (N, cleaved yes); host or cells: E. coli
Briefly: Biochemical assay for activation of pyruvate kinase R (Kinase-Glo luminescence, ATP generation). As to conditions: for AC50: 0.1 nM PKR, 2 mM FBP, 0.3 mM ADP, 0.1 mM PEP; for PKR % activation: maximal activation level relative to the activation level achieved by AG-348 @ 10 μM. As for the experimental part: Proteins were translated as fusions with 6×-His, 8×-Arg, and SUMO at the N-terminus. […] All proteins were cloned, expressed in E. coli, and purified using similar protocols. Cells were grown at 30° C. in Luria-Bertani broth supplemented with 0.4% glucose to OD600=0.8 and induced with 0.4 mM IPTG at 16° C. for 18 hours. Cells were harvested by centrifugation, resuspended in 50 mM potassium phosphate pH 8.0, 500 mM NaCl, 25 mM imidazole pH 8.0, and 3 mM β-mercaptoethanol. Cells were lysed using a LM20 microfluidizer from Microfluidics (Westwood, Mass.). The crude lysate was immediately supplemented with 0.2 mM phenylmethylsulfonyl fluoride (PMSF) and centrifuged at 20,000 g for 20 minutes. The soluble fraction was subsequently incubated with 2 mL Ni-NTA (GE Healthcare) per 1,000 ODs for 1 hour at 4° C. Following incubation with the Ni-NTA resin, lysate was removed by pelleting resin at 2,500 g for 3 minutes and washed 3 times with 9 bed volumes of 50 mM potassium phosphate pH 8.0, 500 mM NaCl, 25 mM imidazole, and 3 mM β-mercaptoethanol. Following the batch wash Ni-NTA resin was loaded onto a gravity column and His-tagged protein was eluted with 6 bed volumes of 10 mM Tris/HCl pH 8.0, 200 mM NaCl, 500 mM imidazole, and 3 mM β-mercaptoethanol. Eluted protein was dialyzed overnight against 10 mM Tris/HCl pH 8.0, 200 mM NaCl, and 1 mM DTT and the 6×-His-8×-Arg-SUMO-tag was cleaved using a 20:1 molar ratio of protein:3C protease. The protein was purified by anion exchange chromatography on a HiTrapQ or MonoQ 10/100 GL column (GE Healthcare) via a linear NaCl gradient and twice by size exclusion chromatography using a Superdex S200 26/60 column (GE Healthcare) run in 10 mM Tris/HCl pH 8.0, 200 mM NaCl, 10 mM MgCl2, 1 mM DTT. Proteins were concentrated to ˜12 mg/mL for crystallization and flash frozen for storage.
Biochemical Assay for Activation of Pyruvate Kinase R
Activation of pyruvate kinase R (PKR) and pyruvate kinase M2 (PKM2) were measured using a luminescence based measurement of ATP generation and the Kinase-Glo luminescent kinase reagent kit.
On the technique in general: Kinase-Glo measures the ATP left after a reaction by luminescence.

Where only a bound is given, the exact number is not on record here.

T1 sequence (P30613 14-574): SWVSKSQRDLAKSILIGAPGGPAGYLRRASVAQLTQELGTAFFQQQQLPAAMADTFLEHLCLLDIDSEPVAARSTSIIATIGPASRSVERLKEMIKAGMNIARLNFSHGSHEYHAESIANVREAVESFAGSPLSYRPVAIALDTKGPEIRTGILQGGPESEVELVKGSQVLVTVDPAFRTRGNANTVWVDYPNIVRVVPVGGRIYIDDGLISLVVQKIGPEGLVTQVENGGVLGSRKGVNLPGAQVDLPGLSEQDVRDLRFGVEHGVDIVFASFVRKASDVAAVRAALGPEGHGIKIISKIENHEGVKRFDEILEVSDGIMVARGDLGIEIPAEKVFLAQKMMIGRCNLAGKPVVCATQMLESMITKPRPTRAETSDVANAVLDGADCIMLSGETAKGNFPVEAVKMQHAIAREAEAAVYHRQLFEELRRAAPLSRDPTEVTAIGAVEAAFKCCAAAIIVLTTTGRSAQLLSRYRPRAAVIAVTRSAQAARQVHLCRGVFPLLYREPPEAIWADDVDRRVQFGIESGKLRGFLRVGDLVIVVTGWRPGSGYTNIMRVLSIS

`Cc1ncccc1[C@@H](N)C(=O)N1Cc2cn(S(=O)(=O)c3ccc4ncsc4c3)nc2C1` (single isomer, unassigned) [Compound 55, (2R)-2-amino-1-[2-(1,3-benzothiazole-6-sulfonyl)-2H,4H,5H,6H-pyrrolo[3,4-c]pyrazol-5-yl]-2-(2-methylpyridin-3-yl)ethan-1-one or (2S)-2-amino-1-[2-(1,3-benzothiazole-6-sulfonyl)-2H,4H,5H,6H-pyrrolo[3,4-c]pyrazol-5-yl]-2-(2-methylpyridin-3-yl)ethan-1-one] showed an AC50 of over 10000 nM and a PKR % activation of 0%. Molecule `O=C(N1Cc2cn(S(=O)(=O)c3ccc4ncsc4c3)nc2C1)[C@@]1(c2ccccc2)CCCN1` (single isomer, unassigned) [Compound 61, 6-({5-[(2S)-2-phenylpyrrolidine-2-carbonyl]-2H,4H,5H,6H-pyrrolo[3,4-c]pyrazol-2-yl}sulfonyl)-1,3-benzothiazole or 6-({5-[(2R)-2-phenylpyrrolidine-2-carbonyl]-2H,4H,5H,6H-pyrrolo[3,4-c]pyrazol-2-yl}sulfonyl)-1,3-benzothiazole] yielded an AC50 of 452 nM and a PKR % activation of 48%.

`C[C@@H](O)[C@H](C(=O)N1Cc2cn(S(=O)(=O)c3ccc4cn[nH]c4c3)nc2C1)c1ccccc1` (single isomer, unassigned) [Compound 62]: the AC50 came to 47 nM and the PKR % activation came to 115%. `C[C@@H](O)[C@@H](C(=O)N1Cc2cn(S(=O)(=O)c3ccc(OC(F)F)cc3)nc2C1)c1ccccc1Cl` (single isomer, unassigned) [Compound 66] displayed an AC50 of 13 nM and a PKR % activation of 142%. For `C[C@@H](O)[C@@H](C(=O)N1Cc2cn(S(=O)(=O)c3ccc(OC(F)F)cc3)nc2C1)c1ccccc1Cl` (single isomer, unassigned) [Compound 68] the same measures were 10 nM and 179%. As for `CC(O)C(C(=O)N1Cc2cn(S(=O)(=O)c3ccc4ncsc4c3)nc2C1)c1ccccc1Cl` (single isomer, unassigned) [Compound 69], the AC50 came out at 4.7 nM.

As for `C[C@@H](O)[C@@H](C(=O)N1Cc2cn(S(=O)(=O)c3cnc4c(c3)OCCO4)nc2C1)c1ccccc1Cl` (single isomer, unassigned) [Compound 70], the AC50 stood at 15 nM and the PKR % activation worked out at 80%. The molecule `O=C(C(CO)c1ccccc1Cl)N1Cc2cn(S(=O)(=O)c3cnc4c(c3)OCCO4)nc2C1` (single isomer, unassigned) [Compound 71, (2S,3R)-2-(2-chlorophenyl)-1-(2-[2H,3H[1,4]dioxino[2,3-b]pyridine-7-sulfonyl]-4H,6H-pyrrolo[3,4-c]pyrazol-5-yl)-3-hydroxybutan-1-one or (2R,3R)-2-(2-chlorophenyl)-1-(2-[2H,3H-[1,4]dioxino[2,3-b]pyridine-7-sulfonyl]-4H,6H-pyrrolo[3,4-c]pyrazol-5-yl)-3-hydroxybutan-1-one] yielded an AC50 of 8.9 nM. Molecule `O=C([C@H](O)c1ncccc1F)N1Cc2cn(S(=O)(=O)c3ccc4ncsc4c3)nc2C1` (single isomer, unassigned) [Compound 74, (2R)-1-[2-(1,3-benzothiazole-6-sulfonyl)-2H,4H,5H,6H-pyrrolo[3,4-c]pyrazol-5-yl]-2-(3-fluoropyridin-2-yl)-2-hydroxyethan-1-one or (2S)-1-[2-(1,3-benzothiazole-6-sulfonyl)-2H,4H,5H,6H-pyrrolo[3,4-c]pyrazol-5-yl]-2-(3-fluoropyridin-2-yl)-2-hydroxyethan-1-one] displayed an AC50 of 8.5 nM and a PKR % activation of 100%. With `COc1ccc(S(=O)(=O)n2cc3c(n2)CN(C(=O)[C@H](O)c2ncccc2F)C3)cc1` (single isomer, unassigned) [Compound 87, (2R)-2-(3-fluoropyridin-2-yl)-2-hydroxy-1-[2-(4-methoxybenzenesulfonyl)-2H,4H,5H,6H-pyrrolo[3,4-c]pyrazol-5-yl]ethan-1-one or (2R)-2-(3-fluoropyridin-2-yl)-2-hydroxy-1-[2-(4-methoxybenzenesulfonyl)-2H,4H,5H,6H-pyrrolo[3,4-c]pyrazol-5-yl]ethan-1-one], the activity was half-maximal at 25 nM (AC50) and the PKR % activation was 156%. On to `O=C([C@H](CO)c1ncccc1F)N1Cc2cn(S(=O)(=O)c3ccc(OC(F)F)cc3)nc2C1` (single isomer, unassigned) [Compound 89, (2S)-1-{2-[4-(difluoromethoxy)benzenesulfonyl]-2H,4H,5H,6H-pyrrolo [3,4-c]pyrazol-5-yl}-2-(3-fluoropyridin-2-yl)-3-hydroxypropan-1-one or (2R)-1-{2-[4-(difluoromethoxy)benzenesulfonyl]-2H,4H,5H,6H-pyrrolo[3,4-c]pyrazol-5-yl}-2-(3-fluoropyridin-2-yl)-3-hydroxypropan-1-one], for which the AC50 came out at 7.9 nM and the PKR % activation is on record as 132%. `O=C1CN([C@@H](C(=O)N2Cc3cn(S(=O)(=O)c4ccc(OC(F)F)cc4)nc3C2)c2ccccc2)C1` (single isomer, unassigned) [Compound 92, 1-[(1R)-2-{2-[4-(difluoromethoxy)benzenesulfonyl]-2H,4H,5H,6H-pyrrolo[3,4-c]pyrazol-5-yl}-2-oxo-1-phenylethyl]azetidin-3-one or 1-[(1S)-2-{2-[4-(difluoromethoxy)benzenesulfonyl]-2H,4H,5H,6H-pyrrolo[3,4-c]pyrazol-5-yl}-2-oxo-1-phenylethyl]azetidin-3-one] came in with an AC50 of 800 nM and a PKR % activation of 120%. The molecule `O=C1CN([C@@H](C(=O)N2Cc3cn(S(=O)(=O)c4ccc(OC(F)F)cc4)nc3C2)c2ccccc2)C1` (single isomer, unassigned) [Compound 93, 1-[(1R)-2-{2-[4-(difluoromethoxy)benzenesulfonyl]-2H,4H,5H,6H-pyrrolo[3,4-c]pyrazol-5-yl}-2-oxo-1-phenylethyl]azetidin-3-one or 1-[(1S)-2-{2-[4-(difluoromethoxy)benzenesulfonyl]-2H,4H,5H,6H-pyrrolo[3,4-c]pyrazol-5-yl}-2-oxo-1-phenylethyl]azetidin-3-one] gave an AC50 of 5550 nM and a PKR % activation of 84%. In the case of `O=C([C@@H](c1ccccc1)N1CCC1=O)N1Cc2cn(S(=O)(=O)c3ccc(OC(F)F)cc3)nc2C1` (single isomer, unassigned) [Compound 99, 1-[(1R)-2-{2[4-(difluoromethoxy)benzenesulfonyl]-2H,4H,5H,6H-pyrrolo[3,4-c]pyrazol-5-yl}-2-oxo-1-phenylethyl]azetidin-2-one or 1-[(1S)-2-{2-[4-(difluoromethoxy)benzenesulfonyl]-2H,4H,5H,6H-pyrrolo[3,4-c]pyrazol-5-yl}-2-oxo-1-phenylethyl]azetidin-2-one], half-maximal activity (AC50) was put at 190 nM and the PKR % activation was 92%.

On to `O=C([C@@H](c1ccccc1)N1CCC1=O)N1Cc2cn(S(=O)(=O)c3ccc(OC(F)F)cc3)nc2C1` (single isomer, unassigned) [Compound 100, 1-[(1R)-2-{2-[4-(difluoromethoxy)benzenesulfonyl]-2H,4H,5H,6H-pyrrolo[3,4-c]pyrazol-5-yl}-2-oxo-1-phenylethyl]azetidin-2-one or 1-[(1S)-2-{2-[4-(difluoromethoxy)benzenesulfonyl]-2H,4H,5H,6H-pyrrolo[3,4-c]pyrazol-5-yl}-2-oxo-1-phenylethyl]azetidin-2-one], for which the AC50 is over 10000 nM and the PKR % activation is on record as 0%.
